Data published in US20240182521A1, “CELL-PENETRATING PEPTIDE VARIANT AND USE THEREOF” (REGEN INNOPHARM INC., priority 2021, published 2024).

Experiments:
[1] = system: NIH3T3 cells; assay: Cell migration effects, Table 1; assay type: cell-based, mouse; conditions: vehicle = 1
Method: Various variants of the LPX peptides were prepared as illustrated in FIG. 18. Specifically, various constructs (26 constructs including 101) were prepared by adding various mutations (substitution of a CPP region, amino acid mutation of an RNA binding portion and a zinc finger structure, and addition of his-tag) to the structure of LPX101 in FIG. 19 (FIG. 20).

[2] = system: diabetes model mice (db/db); assay: Diabetic wound healing of LPX105 variants in db/db mice; assay type: in vivo, mouse; conditions: 3 μg daily for 10 days, control group PBS
Method: By using the method described in Example 2-4 above, the diabetic wound healing effect of LPX105, LPH105, and LPHS105 was evaluated. Specifically, the skins of diabetes model mice (db/db) (n=14 each) were punched with an 8 mm diameter puncher and treated with LPX105, LPH105 and LPHS105 (3 μg) or PBS daily for 10 days and subjected to wound dressing. The wound healing effect was confirmed by analyzing an initial wound area and a re-epithelialization area using ImageJ (mean SEM n=3, *; p<0.05).

[3] = system: fibroblast 3T3 cells; assay: Cell migration across a scratched boundary, LPX105 variants; assay type: cell-based; conditions: 72 hours after treatment, control group PBS
Method: Using the method described in Example 1-2 above, the cell migration promotion of LPX105, LPH105, and LPHS105 was confirmed. Specifically, in order to confirm the cell migration effect, fibroblast 3T3 cells were treated with LPX105, LPH105, and LPHS105 peptides, incubated for 1 hour, and then washed. Thereafter, the migration of cells across a scratched boundary was measured 72 hours after treatment. The number of cells that migrated across a scratch line was measured by image analysis using ImageJ.

[4] = system: NIH3T3 cell line and mouse mesenchymal stem cells (mMSCs); assay: Cell penetrating effect (FACS, confocal microscopy) of FITC-attached peptides; assay type: cell-based
From the text: A cell penetrating effect was confirmed in penetrating peptides LPX101 (SEQ ID NO: 11), LPX102 (SEQ ID NO: 12), and LPX103 (SEQ ID NO: 13) having three structures including a signal peptide, an RNA binding affinity residue, and an RNA binding residue (FIG. 1), and two zinc finger motifs. Specifically, in order to measure cell penetrating efficiency, respective peptides that may have been attached to the cell membrane surface were removed by applying a Heparin & Trypsin washing method used in a Keplan group [Kaplan I M, Wadia J S, Dowdy S F (2005) Cationic TAT peptide transduction domain enters cells by macropinocytosis. J Controlled release 102: 247-253] to a NIH3T3 cell line and mouse mesenchymal stem cells (mMSCs). […] Then, the cells were washed three times with PBS and detached with trypsin, and then FACS analysis was performed. In addition, whether each peptide actually existed in the nucleus or cytoplasm of the cell was confirmed by confocal microscopy after 18 hours of peptide treatment, and membrane binding was labeled with PKH.

[5] = system: Human umbilical vein endothelial cells (Huvec); assay: Blood vessel formation on cytokine-free Matrigel; assay type: cell-based; conditions: Huvec treated for one day
From the text: Human umbilical vein endothelial cells (Huvec) were dispensed on a cytokine-free Matrigel and treated with LPX101 for one day (n=3, 1 expt). […], the blood vessel formation was confirmed under a microscope, and blood vessel formation parameters including the number of nodules, the number of intravascular junctions, and the number of master segments were quantified.

[6] = system: NIH3T3 cell line; assay: Cell growth (relative proliferation rate vs control, 3 days); assay type: cell-based, mouse; conditions: concentrations of 2 μM and 5 μM; 3 days after treatment
Method: (§1) An effect of LPX101 peptide on cell growth was confirmed in a NIH3T3 cell line, and the effects of LPX101, LPX102, and LPX103 peptides on cell migration were confirmed in diabetic human epidermal keratinocyte (DHEK) as a diabetic cell line. Specifically, mMSC or NIH3T3 cells were treated with the LPX101 peptide, incubated for 1 hour, and then washed. A % increase in cell growth by LPX treatment was confirmed by measuring the number of cells after 3 days of treatment and calculating a relative proliferation rate as % compared to a control group (n=3). Additionally, in order to confirm the cell migration effect, DHEK cells were treated with LPX101, LPX102, and LPX103 peptides, incubated for 1 hour, and then washed. Thereafter, the migration of cells across a scratched boundary was measured 72 hours after treatment. The number of cells that migrated across a scratch line was measured by image analysis using ImageJ.

[7] = system: wild type (WT) mice; assay: Skin punch wound healing in wild type mice; assay type: in vivo, mouse; conditions: 2 mg/ml, 20 μl daily for 14 days
Method: (§2) The skins of wild type (WT) mice and diabetes model mice (db/db) (n=14 each) were punched with an 8 mm diameter puncher and treated with LPX101 (2 mg/ml, 20 μl) or PBS daily for 14 days and subjected to wound dressing. The wound healing effect was confirmed by analyzing an initial wound area and a re-epithelialization area using ImageJ (mean SEM n=3, *; p<0.05). In addition, the wound healing effect in wounds treated with LPX101 was histologically evaluated. Specifically, diabetic mice (db/db) were stained with H/E or trichrome at 7 and 14 days after wound induction and then confirmed under a microscope, and re-epithelialization and granulation tissue were quantified using ImageJ (n=3, ***; p<0.001). In addition, the wounds of db/db mice were treated with LPX101, and the tissue epidermis after 14 days was histologically analyzed.

[8] = system: diabetic human epidermal keratinocyte (DHEK); assay: Cell migration across a scratched boundary; assay type: cell-based
Method: as §1

[9] = system: diabetic mouse model (db/db); assay: Diabetic wound healing by combined treatment with EGF; assay type: in vivo; conditions: db/db mice, 8 mm punch wound
From the text: The diabetic wound healing effect by combined treatment with LPX peptide and EGF was confirmed.

[10] = system: NIH3T3 cells; assay: Glycolysis, extracellular acidification rate (ECAR), Seahorse XF analyzer; assay type: cell-based, mouse
Method: NIH3T3 cells were incubated in a glucose-free medium for 1 day and then sequentially treated with glucose, oligomycin, and 2-DG, and an extracellular acidification rate (ECAR) was measured as a measure of lactate production using a Seahorse extracellular flux (XF) analyzer and quantification and profile of ECAR were confirmed in cells treated with LPX peptide (Mean SEM n=3, *; p<0.05).

[11] = system: diabetic mice (db/db); assay: Histological evaluation of wound re-epithelialization (H/E, day 10); assay type: in vivo, mouse; conditions: day 10 after initial injury
From the text: In order to histologically evaluate wound re-epithelialization in diabetic mice by LPX peptides 101, 102 and 103, wound tissues from diabetic mice (db/db) treated by each LPX were H/E stained on day 10 after initial injury and confirmed under a microscope (50X and 100x).

[12] = system: diabetes model mice (db/db); assay: Diabetic wound healing in diabetes model mice (db/db); assay type: in vivo, mouse
Method: as §2
(§3) The wound healing effects of LPX101, LPX102, and LPX103 were confirmed in an STZ-induced diabetic mouse model. […] Thereafter, according to a schedule shown in FIG. 12A, PBS (negative control), EGF (positive control) 50 μg/ml, LPX101 2 mg/ml (20 μl), LPX102 and LPX103 (2 mg/ml (20 μl)) were treated, respectively, and then the effect of wound healing in a diabetes-induced mouse model was confirmed through imaging, re-epithelialization, and diabetes phenotypes (hyperglycemia and impaired glucose tolerance test (IPGTT)) (n=10 for each group, *; p<0.05). Additionally, to compare the regenerative activity of LPX peptides in a diabetic mouse model, wound healing kinetics measured by a % non-epithelialized area to an initial wound area (n=8 for each group), and quantification of re-epithelialization analyzed as % of a re-epithelialized area to the initial wound area were confirmed.

[13] = system: STZ-induced diabetic mouse model; assay: Wound healing in STZ-induced diabetic mouse model; assay type: in vivo; conditions: 2 mg/ml (20 μl)
Method: as §3

Row | Substance | Effects on cell migration (3 expts) ([1]; 1 uM) | Effects on cell migration (3 expts) ([1]; 5 uM) | diabetic wound healing [2] | cell migration [3] | diabetic wound healing effect in combination with EGF [9] | glucose metabolism (glycolysis), ECAR [10] | re-epithelialization of diabetic wounds (histology) [11] | further results
1 | LPX104: cell-penetrating peptide of SEQ ID NO: 14, containing SEQ ID NO: 7 with an RNA binding site in zinc finger 2 region (ERRPKGKSMQKRRSKGDRCYNCGGLDHHAKECKLPPQPKKCH; LPX104) | 1.3 | 1.3 |  |  |  |  |  | 
2 | LPH105: LPX105 variant of SEQ ID NO: 39, Histidine tag insertion (HHHHHHRRPKGKSMQKRRSKGDRCYNCGGLDHHAKECKL; LPH105) |  |  | accelerated the diabetic wound healing more significantly than LPX105 | increased cell migration more than LPX105 |  |  |  | 
3 | LPX101: cell-penetrating peptide consisting of amino acid sequence SEQ ID NO: 11 (RRPKGKSMQKRRSKGDRCYNCGGLDHHAKECKLPPQPKKCHFCQSISHMVASCPLKAQQK; LPX101) | 1.4 | 1.3 |  |  | improved when treated in combination with EGF | promoted glucose metabolism (glycolysis) | significantly improved re-epithelialization | cell permeability ([4]; concentrations of 2 μM and 5 μM): high cell permeability; intracellular localization ([4]; confocal microscopy after 18 hours of peptide treatment): most of LPX101 was present in the cytoplasm; blood vessel formation (capillary vascular rings) [5]: form more mature capillary vascular rings; cell growth [6]: promoted cell growth; wound healing [7]: accelerated wound healing; migration of DHEK cells ([8]; 72 hours after treatment): promoted the migration of DHEK cells; healing of diabetic wounds ([12]; db/db mice, 2 mg/ml, 20 μl daily for 14 days): significantly accelerated the healing of diabetic wounds; granulation tissue, day 7 ([12]; db/db mice, day 7 (middle of the healing process)): early formation of granulation tissue; remodeling of the regenerated wound epithelium ([12]; db/db mice, day 14): accelerated; granulation tissue, day 14 ([12]; db/db mice, day 14 (end of the healing process)): early shrinkage (remodeling) of granulation tissue; hyperkeratosis, parakeratosis and acanthosis of the epidermis ([12]; db/db mice, histological analysis on day 14): reduced early
4 | LPHS105: LPX105 variant of SEQ ID NO: 40, zinc finger region mutations and Histidine tag insertion (HHHHHHRRPKGKSMQKRRSKGDRCYNCGELDHHAKECKL; LPHS105) |  |  | accelerated the diabetic wound healing more significantly than LPX105 | increased cell migration more than LPX105 |  |  |  | 
5 | LPX102: cell-penetrating peptide consisting of amino acid sequence SEQ ID NO: 12 (GSERRPKGKSMQKRRSKGDRCYNCGGLDHHAKECKLPPQPKKCHFCQSISHMVASCPL; LPX102) | 1.2 | 1.2 |  |  | improved when treated in combination with EGF | promoted glucose metabolism (glycolysis) | significantly improved re-epithelialization | cell permeability compared to LPX101 ([4]; compared to LPX101 (2 μM)): high cell permeability similar to LPX101; cell migration compared to LPX101 ([8]; DHEK cells, at lower concentrations than LPX101): promoted cell migration to a similar extent to LPX101; diabetic wound healing effect (wound healing kinetics and re-epithelialization) compared to LPX101 ([12]; db/db mouse model): better diabetic wound healing effect than LPX101; wound healing effect compared to LPX101 [13]: better effects than LPX101
6 | LPX105: cell-penetrating peptide of SEQ ID NO: 37 (RRPKGKSMQKRRSKGDRCYNCGGLDHHAKECKL; LPX105) |  |  | accelerated the diabetic wound healing | significantly promoted cell migration |  |  |  | 
